Measured values taken from patent publication US11584714B2 (priority 2018, dated 2023).
Structures can show the parent of a compound that is named as a salt. Where two headings read alike, the source gives them in different places.

Columns and labels:
Type in all cases: biochemical
human α-thrombin = human α-thrombin (Homo sapiens (Human), UniProt P00734); assay: Enzymatic assay for thrombin (Boc-VPR-AMC substrate)
MASP-2 (CCP1-CCP2-SP) = MASP-2 (CCP1-CCP2-SP) (Homo sapiens (Human), UniProt O00187); assay: biochemical; conditions: for MASP-2 vs. thrombin selectivity: selectivity for MASP-2 inhibition versus thrombin
Chain of MASP-2 (CCP1-CCP2-SP) (O00187 445-686): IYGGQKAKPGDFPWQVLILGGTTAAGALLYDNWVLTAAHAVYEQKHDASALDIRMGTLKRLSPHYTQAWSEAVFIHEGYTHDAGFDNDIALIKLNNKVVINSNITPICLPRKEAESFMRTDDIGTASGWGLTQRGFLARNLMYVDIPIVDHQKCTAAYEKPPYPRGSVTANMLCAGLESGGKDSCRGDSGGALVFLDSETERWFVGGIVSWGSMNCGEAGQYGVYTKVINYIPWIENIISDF

mMASP-2 = mMASP-2 (Mus musculus (Mouse), UniProt Q91WP0); assay: Enzymatic inhibition of mMASP-2; conditions: read-out: mMASP-2 Ki
Chain of mMASP-2 (Q91WP0 20-685): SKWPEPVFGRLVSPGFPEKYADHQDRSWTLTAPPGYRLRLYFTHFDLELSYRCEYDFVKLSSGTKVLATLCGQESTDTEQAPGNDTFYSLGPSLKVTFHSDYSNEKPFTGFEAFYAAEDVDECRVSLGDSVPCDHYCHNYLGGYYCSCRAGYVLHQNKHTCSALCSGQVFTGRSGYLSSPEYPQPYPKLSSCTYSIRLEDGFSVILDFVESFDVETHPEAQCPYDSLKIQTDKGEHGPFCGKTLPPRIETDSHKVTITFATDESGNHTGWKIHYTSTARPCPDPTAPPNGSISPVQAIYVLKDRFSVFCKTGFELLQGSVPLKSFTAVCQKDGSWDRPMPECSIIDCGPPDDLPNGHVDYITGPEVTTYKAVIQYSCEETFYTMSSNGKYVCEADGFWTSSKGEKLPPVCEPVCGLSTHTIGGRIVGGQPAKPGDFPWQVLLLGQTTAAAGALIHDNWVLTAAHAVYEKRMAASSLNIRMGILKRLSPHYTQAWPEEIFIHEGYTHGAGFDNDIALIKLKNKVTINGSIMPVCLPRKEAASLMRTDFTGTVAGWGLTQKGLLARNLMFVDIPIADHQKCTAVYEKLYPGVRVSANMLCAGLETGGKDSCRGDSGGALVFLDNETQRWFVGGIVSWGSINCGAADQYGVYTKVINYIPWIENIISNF

## C[C@H](NC(=O)[C@H]1C[C@H](Cc2ccc(-c3ccc(F)cc3C(N)=O)cc2)CN1)C(=O)NCc1cc(Cl)ccc1-n1cnnn1 [compound 1405, (2R,4S)-4-((2′-Carbamoyl-4′-fluoro-[1,1′-biphenyl]-4-yl)methyl)-N-((S)-1-((5-chloro-2-(1H-tetrazol-1-yl)benzyl)amino)-1-oxopropan-2-yl)pyrrolidine-2-carboxamide Hydrochloride]
Human α-thrombin; Thrombin Ki (μM)
  Ki: 0.5 to 2.5 µM
MASP-2 (CCP1-CCP2-SP); read-out: MASP-2 Ki
  Ki: < 0.5 µM
MASP-2 (CCP1-CCP2-SP)
  MASP-2 vs. thrombin selectivity: ** (≥5.0 to <25-fold)
mMASP-2
  Ki: 0.5 to 2.5 µM

## Cc1nc(N)ccc1CNC(=O)[C@H](C)NC(=O)[C@H]1C[C@H](Cc2cccc(-c3ccccc3)c2)CN1 [compound 1406, (2R,4S)-4-([1,1′-Biphenyl]-3-ylmethyl)-N-((S)-1-(((6-amino-2-methylpyridin-3-yl)methyl)amino)-1-oxopropan-2-yl)pyrrolidine-2-carboxamide Dihydrochloric acid]
Human α-thrombin; Thrombin Ki (μM)
  Ki: 2.5 to 10 µM
MASP-2 (CCP1-CCP2-SP); read-out: MASP-2 Ki
  Ki: < 0.5 µM
MASP-2 (CCP1-CCP2-SP)
  MASP-2 vs. thrombin selectivity: **** (≥100-fold)
mMASP-2
  Ki: < 0.5 µM

## Cc1cc(Cl)cc(CNC(=O)[C@H](C)NC(=O)[C@H]2C[C@H](Cc3ccccc3-c3ccc(Cl)s3)CN2)c1O [compound 1408, (2R,4S)—N—((S)-1-((5-Chloro-2-hydroxy-3-methylbenzyl)amino)-1-oxopropan-2-yl)-4-(2-(5-chlorothiophen-2-yl)benzyl)pyrrolidine-2-carboxamide Hydrochloride]
Human α-thrombin; Thrombin Ki (μM)
  Ki: 2.5 to 10 µM
MASP-2 (CCP1-CCP2-SP); read-out: MASP-2 Ki
  Ki: < 0.5 µM
MASP-2 (CCP1-CCP2-SP)
  MASP-2 vs. thrombin selectivity: ** (≥5.0 to <25-fold)
mMASP-2
  Ki: 2.5 to 10 µM

## C[C@H](NC(=O)[C@H]1C[C@H](Cc2ccccc2-c2ccc(Cl)s2)CN1)C(=O)NCc1cc(Cl)ccc1-n1cnnn1 [compound 1409, (2R,4S)—N—((S)-1-((5-Chloro-2-(1H-tetrazol-1-yl)benzyl)amino)-1-oxopropan-2-yl)-4-(2-(5-chlorothiophen-2-yl)benzyl)pyrrolidine-2-carboxamide Trifluoroacetate]
Human α-thrombin; read-out: Thrombin Ki
  Ki: < 0.5 µM
MASP-2 (CCP1-CCP2-SP); read-out: MASP-2 Ki
  Ki: < 0.5 µM
MASP-2 (CCP1-CCP2-SP)
  MASP-2 vs. thrombin selectivity: * (≥1.0 to <5.0-fold)
mMASP-2
  Ki: 2.5 to 10 µM

## Cc1nc(N)ccc1CNC(=O)[C@H](C)NC(=O)[C@H]1C[C@H](Cc2ccccc2-c2ccc(Cl)s2)CN1 [compound 1410, (2R,4S)—N—((S)-1-(((6-Amino-2-methylpyridin-3-yl)methyl)amino)-1-oxopropan-2-yl)-4-(2-(5-chlorothiophen-2-yl)benzyl)pyrrolidine-2-carboxamide Trifluoroacetate]
Human α-thrombin; Thrombin Ki (μM)
  Ki: 0.5 to 2.5 µM
MASP-2 (CCP1-CCP2-SP); read-out: MASP-2 Ki
  Ki: < 0.5 µM
MASP-2 (CCP1-CCP2-SP)
  MASP-2 vs. thrombin selectivity: *** (≥25 to <100-fold)
mMASP-2
  Ki: 0.5 to 2.5 µM

## Cc1nc(N)ccc1CNC(=O)[C@H](C)NC(=O)[C@H]1C[C@@H](c2ccccc2)CCN1CCC(=O)O [compound 1411, 3-((2R,4S)-2-(((S)-1-(((6-Amino-2-methylpyridin-3-yl)methyl)amino)-1-oxopropan-2-yl)carbamoyl)-4-phenylpiperidin-1-yl)propanoic acid Trifluoroacetate salt]
Human α-thrombin; read-out: Thrombin Ki
  Ki: > 25 µM
MASP-2 (CCP1-CCP2-SP); read-out: MASP-2 Ki
  Ki: < 0.5 µM
mMASP-2
  Ki: < 0.5 µM

## Cc1nc(N)ccc1CNC(=O)[C@H](C)NC(=O)[C@H]1C[C@@H](c2ccccc2)CCN1CCCCCC(=O)O [compound 1412, 6-((2R,4S)-2-(((S)-1-(((6-Amino-2-methylpyridin-3-yl)methyl)amino)-1-oxopropan-2-yl)carbamoyl)-4-phenylpiperidin-1-yl)hexanoic acid Trifluoroacetate salt]
Human α-thrombin; read-out: Thrombin Ki
  Ki: > 25 µM
MASP-2 (CCP1-CCP2-SP); read-out: MASP-2 Ki
  Ki: < 0.5 µM
mMASP-2
  Ki: 2.5 to 10 µM

## CC[C@H]1N[C@@H](C(=O)N[C@@H](C)C(=O)NCc2ccc(N)nc2C)C[C@@H]1Cc1ccccc1 [compound 1413, (2R,4S,5R)—N—((S)-1-(((6-Amino-2-methylpyridin-3-yl)methyl)amino)-1-oxopropan-2-yl)-4-benzyl-5-ethylpyrrolidine-2-carboxamide Di-trifluoroacetate salt]
Human α-thrombin; read-out: Thrombin Ki
  Ki: > 25 µM
MASP-2 (CCP1-CCP2-SP)
  Ki: 0.5 to 2.5 µM
  MASP-2 vs. thrombin selectivity: *** (≥25 to <100-fold)
mMASP-2
  Ki: 2.5 to 10 µM

## C[C@H](NC(=O)[C@H]1C[C@H](c2ccccc2)CN1)C(=O)NCc1cc(Cl)c2[nH]cnc2c1 [compound 1417, (2R,4R)—N—((S)-1-(((7-Chloro-1H-benzo[d]imidazol-5-yl)methyl)amino)-1-oxopropan-2-yl)-4-phenylpyrrolidine-2-carboxamide Trifluoroacetate salt]
Human α-thrombin; read-out: Thrombin Ki
  Ki: > 25 µM
MASP-2 (CCP1-CCP2-SP)
  Ki: 0.5 to 2.5 µM
mMASP-2
  Ki: 2.5 to 10 µM

## Cc1nc2cc(CNC(=O)[C@H](C)NC(=O)[C@H]3C[C@H](c4ccccc4)CN3)cc(Cl)c2[nH]1 [compound 1418, (2R,4R)—N—((S)-1-(((7-Chloro-2-methyl-1H-benzo[d]imidazol-5-yl)methyl)amino)-1-oxopropan-2-yl)-4-phenylpyrrolidine-2-carboxamide Trifluoroacetate salt]
Human α-thrombin; read-out: Thrombin Ki
  Ki: > 25 µM
MASP-2 (CCP1-CCP2-SP)
  Ki: 2.5 to 10 µM
mMASP-2
  Ki: 10 to 25 µM

## Cc1nc(N)ccc1CNC(=O)[C@H](C)NC(=O)[C@H]1C[C@H](Cc2cccc(C(=O)N3CCC3)c2)CN1 [compound 1420, (2R,4S)—N—((S)-1-(((6-Amino-2-methylpyridin-3-yl)methyl)amino)-1-oxopropan-2-yl)-4-(3-(azetidine-1-carbonyl)benzyl)pyrrolidine-2-carboxamide Di-trifluoroacetate salt]
Human α-thrombin; Thrombin Ki (μM)
  Ki: 2.5 to 10 µM
MASP-2 (CCP1-CCP2-SP); read-out: MASP-2 Ki
  Ki: < 0.5 µM
MASP-2 (CCP1-CCP2-SP)
  MASP-2 vs. thrombin selectivity: **** (≥100-fold)
mMASP-2
  Ki: < 0.5 µM

## Cc1nc(N)ccc1CNC(=O)[C@H](C)NC(=O)[C@H]1C[C@H](Cc2cc(Br)no2)CN1 [compound 1421, (2R,4R)—N—((S)-1-(((6-Amino-2-methylpyridin-3-yl)methyl)amino)-1-oxopropan-2-yl)-4-((3-bromoisoxazol-5-yl)methyl)pyrrolidine-2-carboxamide Di-trifluoroacetate salt]
Human α-thrombin; Thrombin Ki (μM)
  Ki: 10 to 25 µM
MASP-2 (CCP1-CCP2-SP); read-out: MASP-2 Ki
  Ki: < 0.5 µM
MASP-2 (CCP1-CCP2-SP)
  MASP-2 vs. thrombin selectivity: **** (≥100-fold)
mMASP-2
  Ki: 0.5 to 2.5 µM

## Cc1nc(N)ccc1CNC(=O)[C@H](C)NC(=O)[C@H]1C[C@H](Cc2cc(C(F)(F)F)cc(C(F)(F)F)c2)CN1 [compound 1424, (2R,4S)—N—((S)-1-(((6-Amino-2-methylpyridin-3-yl)methyl)amino)-1-oxopropan-2-yl)-4-(3,5-bis(trifluoromethyl)benzyl)pyrrolidine-2-carboxamide Di-trifluoroacetate salt]
Human α-thrombin; read-out: Thrombin Ki
  Ki: < 0.5 µM
MASP-2 (CCP1-CCP2-SP)
  Ki: 0.5 to 2.5 µM
mMASP-2
  Ki: 0.5 to 2.5 µM

## C[C@H](NC(=O)[C@H]1C[C@H](c2ccccc2)CN1)C(=O)NCc1ccc2c(N)n[nH]c2c1 [compound 1425, (2R,4R)—N—((S)-1-(((3-Amino-1H-indazol-6-yl)methyl)amino)-1-oxopropan-2-yl)-4-phenylpyrrolidine-2-carboxamide Trifluoroacetate salt]
Human α-thrombin; read-out: Thrombin Ki
  Ki: > 25 µM
MASP-2 (CCP1-CCP2-SP)
  Ki: 2.5 to 10 µM
mMASP-2
  Ki: 0.5 to 2.5 µM

## C[C@H](NC(=O)[C@H]1C[C@@H](c2ccccc2)CCN1)C(=O)NCc1cc(Cl)ccc1-n1cnnn1 [compound 1426, (2R,4S)—N—((S)-1-((5-Chloro-2-(1H-tetrazol-1-yl)benzyl)amino)-1-oxopropan-2-yl)-4-phenylpiperidine-2-carboxamide Trifluoroacetate]
Human α-thrombin; Thrombin Ki (μM)
  Ki: 0.5 to 2.5 µM
MASP-2 (CCP1-CCP2-SP); read-out: MASP-2 Ki
  Ki: < 0.5 µM
MASP-2 (CCP1-CCP2-SP)
  MASP-2 vs. thrombin selectivity: *** (≥25 to <100-fold)
mMASP-2
  Ki: 0.5 to 2.5 µM

## Cc1nc(N)ccc1CNC(=O)[C@H](C)NC(=O)[C@H]1C[C@H](Cc2ccc(Cc3ccccc3)cc2)CN1 [compound 1427, (2R,4S)—N—((S)-1-(((6-Amino-2-methylpyridin-3-yl)methyl)amino)-1-oxopropan-2-yl)-4-(4-benzylbenzyl)pyrrolidine-2-carboxamide di-trifluoroacetate salt]
Human α-thrombin; read-out: Thrombin Ki
  Ki: > 25 µM
MASP-2 (CCP1-CCP2-SP); read-out: MASP-2 Ki
  Ki: < 0.5 µM
MASP-2 (CCP1-CCP2-SP)
  MASP-2 vs. thrombin selectivity: **** (≥100-fold)
mMASP-2
  Ki: < 0.5 µM

## C[C@H](NC(=O)[C@H]1C[C@H](c2ccccc2)CN1)C(=O)NCc1ccc2nccn2c1 [compound 1434, (2R,4R)—N—((S)-1-((Imidazo[1,2-a]pyridin-6-ylmethyl)amino)-1-oxopropan-2-yl)-4-phenylpyrrolidine-2-carboxamide Dihydrochloride]
Human α-thrombin; read-out: Thrombin Ki
  Ki: > 25 µM
MASP-2 (CCP1-CCP2-SP)
  Ki: 10 to 25 µM
mMASP-2
  Ki: 10 to 25 µM

## Cc1cc(Br)cc(CNC(=O)[C@H](C)NC(=O)[C@H]2C[C@H](Cc3ccccc3)CN2)c1-n1cnnn1 [compound 1436, (2R,4S)-4-Benzyl-N-((S)-1-((5-bromo-3-methyl-2-(1H-tetrazol-1-yl)benzyl)amino)-1-oxopropan-2-yl)pyrrolidine-2-carboxamide Trifluoroacetate]
Human α-thrombin; Thrombin Ki (μM)
  Ki: 10 to 25 µM
MASP-2 (CCP1-CCP2-SP)
  Ki: 0.5 to 2.5 µM
  MASP-2 vs. thrombin selectivity: ** (≥5.0 to <25-fold)
mMASP-2
  Ki: > 25 µM

## Cc1nc(N)ccc1CNC(=O)[C@H](C)NC(=O)[C@H]1C[C@@H](c2ccccc2)CCN1CCCC(=O)O [compound 1439, 4-((2R,4S)-2-(((S)-1-(((6-Amino-2-methylpyridin-3-yl)methyl)amino)-1-oxopropan-2-yl)carbamoyl)-4-phenylpiperidin-1-yl)butanoic acid Trifluoroacetate salt]
Human α-thrombin; read-out: Thrombin Ki
  Ki: > 25 µM
MASP-2 (CCP1-CCP2-SP); read-out: MASP-2 Ki
  Ki: < 0.5 µM
mMASP-2
  Ki: 2.5 to 10 µM

## CCOC(=O)CCCN1CC[C@H](c2ccccc2)C[C@@H]1C(=O)N[C@@H](C)C(=O)NCc1ccc(N)nc1C [compound 1440, Ethyl 4-((2R,4S)-2-(((S)-1-(((6-amino-2-methylpyridin-3-yl)methyl)amino)-1-oxopropan-2-yl)carbamoyl)-4-phenylpiperidin-1-yl)butanoate]
Human α-thrombin; read-out: Thrombin Ki
  Ki: > 25 µM
MASP-2 (CCP1-CCP2-SP); read-out: MASP-2 Ki
  Ki: < 0.5 µM
mMASP-2
  Ki: 2.5 to 10 µM

## C[C@H](NC(=O)[C@H]1C[C@H](c2ccccc2)CN1)C(=O)NCc1cnc2c(c1)c(Cl)cn2C [compound 1442, (2R,4R)—N—((S)-1-(((3-Chloro-1-methyl-1H-pyrrolo[2,3-b]pyridin-5-yl)methyl)amino)-1-oxopropan-2-yl)-4-phenylpyrrolidine-2-carboxamide Dihydrochloride]
Human α-thrombin; read-out: Thrombin Ki
  Ki: > 25 µM
MASP-2 (CCP1-CCP2-SP); read-out: MASP-2 Ki
  Ki: < 0.5 µM
mMASP-2
  Ki: < 0.5 µM
